According to paper PMC4680847 (Structure (London, England : 1993), 2015):
Changes are numbered by the printed parent chain. Like-named read-outs stand apart in the source and are kept apart here.

Experiments:
Assay type in all cases: binding
RNase A [1] = molecular target: T1, RNase A (Bos taurus, UniProt P61823); assay: ITC
T1 sequence (P61823 27-150): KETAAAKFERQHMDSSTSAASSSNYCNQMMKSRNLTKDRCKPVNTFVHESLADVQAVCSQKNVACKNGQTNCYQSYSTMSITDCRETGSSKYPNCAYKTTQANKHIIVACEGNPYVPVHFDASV

RNase A [2] = molecular target: T2, RNase A (Bos taurus, UniProt P61823, A135G); assay: crystal structure
T2 sequence (P61823 27-150 A135G): T1 sequence (P61823 27-150) with A109G

RNase A [3] = molecular target: T2, RNase A; assay: crystal structure; remark: listed apart in the source

Kd (RNase A [1])	Kd (RNase A [2])	Kd (RNase A [3])	Structure (SMILES)
67 ± 6 µM	50 ± 8 µM	–	O=c1ccn([C@@H]2O[C@H](CO)[C@@H](OP(=O)(O)O)[C@H]2O)c(=O)[nH]1 [3′-UMP]
105 ± 1 µM	–	440 ± 26 µM	Nc1ncnc2c1ncn2[C@@H]1O[C@H](COP(=O)(O)O)[C@@H](O)[C@H]1O [5′-AMP]
